Source: ChEMBL document CHEMBL1201862, “PubChem BioAssay data set” (2004)
The source made the active and inactive calls.

Assays:
[1] = target: T1, Cannabinoid receptor 1 (Homo sapiens, UniProt P21554); test: SAR analysis of agonists of the Cannabinoid Receptor 1 using an Image-Based Assay - Set 3. [Related pubchem assays (depositor defined):AID1961, AID1965]; assay type: functional
[2] = target: T2, G-protein coupled receptor 35 (Homo sapiens, UniProt Q9HC97); test: SAR analysis of Agonists of the GPR35 Receptor using an Image-Based Assay - Set 3. [Related pubchem assays (depositor defined):AID1961, AID1965]; assay type: functional
T2 sequence (Q9HC97 whole entry): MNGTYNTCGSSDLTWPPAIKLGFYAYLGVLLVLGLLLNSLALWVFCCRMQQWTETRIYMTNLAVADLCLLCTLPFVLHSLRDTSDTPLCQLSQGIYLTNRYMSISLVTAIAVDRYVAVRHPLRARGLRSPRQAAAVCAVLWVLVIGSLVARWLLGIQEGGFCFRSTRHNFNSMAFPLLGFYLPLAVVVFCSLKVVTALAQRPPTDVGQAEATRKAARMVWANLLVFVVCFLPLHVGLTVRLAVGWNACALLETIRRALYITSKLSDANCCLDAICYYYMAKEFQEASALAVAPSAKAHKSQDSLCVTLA

[3] = target: T3, Cannabinoid receptor 2 (Homo sapiens, UniProt P34972); test: SAR analysis of antagonists of the Cannabinoid Receptor 2 using an Image-Based Assay - Set 2. [Related pubchem assays (depositor defined):AID1961, AID1965]; assay type: functional
T3 sequence (P34972 whole entry): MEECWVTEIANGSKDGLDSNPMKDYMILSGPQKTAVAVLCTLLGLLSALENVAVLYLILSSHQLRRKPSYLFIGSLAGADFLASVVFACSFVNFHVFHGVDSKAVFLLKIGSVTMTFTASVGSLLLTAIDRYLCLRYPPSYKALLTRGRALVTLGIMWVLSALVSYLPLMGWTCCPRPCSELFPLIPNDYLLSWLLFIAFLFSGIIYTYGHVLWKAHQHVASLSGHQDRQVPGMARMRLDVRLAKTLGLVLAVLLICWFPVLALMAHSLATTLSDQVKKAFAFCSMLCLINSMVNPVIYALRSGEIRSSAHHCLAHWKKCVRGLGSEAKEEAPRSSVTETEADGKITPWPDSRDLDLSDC

[4] = target: T2, G-protein coupled receptor 35; test: SAR analysis of Antagonists of the GPR35 Receptor using an Image-Based Assay - Set 4. [Related pubchem assays (depositor defined):[…]]; assay type: functional
[5] = target: G-protein coupled receptor 55 (Homo sapiens, UniProt Q9Y2T6); test: SAR analysis of selective Agonists of GPR55 using an Image-Based Assay - Set 2. [Related pubchem assays (depositor defined):AID1961, AID1965]; assay type: functional
G-protein coupled receptor 55, sequence (Q9Y2T6 whole entry): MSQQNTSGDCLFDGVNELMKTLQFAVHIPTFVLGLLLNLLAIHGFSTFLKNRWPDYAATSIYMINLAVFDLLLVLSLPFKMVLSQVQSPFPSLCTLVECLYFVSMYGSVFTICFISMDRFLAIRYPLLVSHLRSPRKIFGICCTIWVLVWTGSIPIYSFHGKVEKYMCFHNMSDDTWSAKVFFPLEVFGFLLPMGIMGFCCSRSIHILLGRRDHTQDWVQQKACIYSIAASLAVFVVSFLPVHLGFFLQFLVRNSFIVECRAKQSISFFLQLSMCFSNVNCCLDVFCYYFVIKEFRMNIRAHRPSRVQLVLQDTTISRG

[6] = target: T1, Cannabinoid receptor 1; test: SAR analysis of antagonists of the Cannabinoid Receptor 1 using an Image-Based Assay - Set 3. [Related pubchem assays (depositor defined):AID1961, AID1965]; assay type: functional
[7] = target: T3, Cannabinoid receptor 2; test: SAR analysis of agonists of the Cannabinoid Receptor 2 using an Image-Based Assay - Set 2. [Related pubchem assays (depositor defined):AID1961, AID1965]; assay type: functional
[8] = system: T-cell; test: loss of vesicle association with mouse CD8+ T cells – mouse 2C CD8+ T cells, flow cytometry, dose response (AID 485284); assay type: functional
[9] = Luminescence Cell-Based Dose Response HTS to Identify Activators of Luciferase Translation or Activity in H4 […] Cells. [Related pubchem assays: 1829 (Project Summary), 1814 (Primary HTS)]; assay type: functional
[10] = Luminescence Cell-Based Dose Confirmation HTS to Identify Activators of 5'UTR Stem-Loop Driven Alpha-Synuclein mRNA Translation in H4 Neuroglioblastoma Cells. [Related pubchem assays: 1829 (Project Summary), 1814 (Primary HTS)]; assay type: functional
[11] = target: Sphingosine 1-phosphate receptor 4 (Homo sapiens, UniProt O95977); test: Late-stage fluorescence dose response cell-based assay to identify agonists of the Sphingosine 1-Phosphate Receptor 4 (S1P4): purchased compounds EC50. [Related pubchem assays (depositor defined):AID1509, AID1523, AID1563, AID1686, AID1701, AID1801]; assay type: functional
Sphingosine 1-phosphate receptor 4, sequence (O95977 whole entry): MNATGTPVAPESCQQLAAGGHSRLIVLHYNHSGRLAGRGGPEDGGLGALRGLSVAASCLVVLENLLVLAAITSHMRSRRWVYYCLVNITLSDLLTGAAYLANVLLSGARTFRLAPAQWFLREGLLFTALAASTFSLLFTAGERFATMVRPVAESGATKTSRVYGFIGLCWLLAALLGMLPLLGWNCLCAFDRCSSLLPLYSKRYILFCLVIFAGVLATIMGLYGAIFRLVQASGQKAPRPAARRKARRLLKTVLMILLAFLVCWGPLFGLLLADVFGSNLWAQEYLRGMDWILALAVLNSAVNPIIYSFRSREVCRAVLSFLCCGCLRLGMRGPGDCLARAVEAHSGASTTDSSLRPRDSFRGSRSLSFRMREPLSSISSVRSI

[12] = target: T4, Mu-type opioid receptor (Homo sapiens, UniProt P35372); test: SAR Analysis of Antagonists of the MOR Receptor using an Image-Based Assay - Set 3. [Related pubchem assays (depositor defined):AID1777, AID1785, AID1786, AID1966, AID2133, AID2136, AID2284, AID2285, AID2420]; assay type: functional
T4 sequence (P35372 whole entry): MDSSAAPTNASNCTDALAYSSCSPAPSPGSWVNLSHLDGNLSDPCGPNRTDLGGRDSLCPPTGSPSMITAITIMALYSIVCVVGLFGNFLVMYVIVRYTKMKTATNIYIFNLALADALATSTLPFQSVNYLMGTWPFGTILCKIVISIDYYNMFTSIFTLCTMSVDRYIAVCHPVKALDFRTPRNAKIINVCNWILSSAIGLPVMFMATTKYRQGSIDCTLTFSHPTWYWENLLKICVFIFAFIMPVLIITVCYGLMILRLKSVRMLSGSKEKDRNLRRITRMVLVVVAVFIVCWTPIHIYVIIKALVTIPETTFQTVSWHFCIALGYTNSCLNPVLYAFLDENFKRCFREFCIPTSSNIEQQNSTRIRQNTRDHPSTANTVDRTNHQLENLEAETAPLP

[13] = target: T5, Kappa-type opioid receptor (Homo sapiens, UniProt P41145); test: SAR analysis of Antagonists of the Kappa Opioid Receptor (KOR) using an Image-Based Assay - Set 4. [Related pubchem assays (depositor defined):AID1777, AID1785]; assay type: functional
T5 sequence (P41145 whole entry): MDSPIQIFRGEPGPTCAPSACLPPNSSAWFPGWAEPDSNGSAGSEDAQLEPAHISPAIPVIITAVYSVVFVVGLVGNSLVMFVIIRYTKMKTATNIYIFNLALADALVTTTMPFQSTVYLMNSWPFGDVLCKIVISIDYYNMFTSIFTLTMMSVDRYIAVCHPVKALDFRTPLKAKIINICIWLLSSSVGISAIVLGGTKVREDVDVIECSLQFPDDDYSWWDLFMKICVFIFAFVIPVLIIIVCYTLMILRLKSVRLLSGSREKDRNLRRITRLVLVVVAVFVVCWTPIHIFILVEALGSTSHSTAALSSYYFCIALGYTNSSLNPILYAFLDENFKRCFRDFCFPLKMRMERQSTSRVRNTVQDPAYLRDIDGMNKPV

[14] = target: T5, Kappa-type opioid receptor; test: SAR analysis of small molecule antagonists of the kappa opioid receptor via a luminescent beta-arrestin assay - Set 6. [Related pubchem assays (depositor defined):AID1777, AID1778, AID1785, AID1786, AID1966, AID2133, AID2136, AID2285]; assay type: functional
[15] = target: T6, Delta-type opioid receptor (Homo sapiens, UniProt P41143); test: SAR Analysis of Antagonists of the DOR Receptor using an Image-Based Assay - Set 3. [Related pubchem assays (depositor defined):AID1777, AID1785]; assay type: functional
T6 sequence (P41143 whole entry): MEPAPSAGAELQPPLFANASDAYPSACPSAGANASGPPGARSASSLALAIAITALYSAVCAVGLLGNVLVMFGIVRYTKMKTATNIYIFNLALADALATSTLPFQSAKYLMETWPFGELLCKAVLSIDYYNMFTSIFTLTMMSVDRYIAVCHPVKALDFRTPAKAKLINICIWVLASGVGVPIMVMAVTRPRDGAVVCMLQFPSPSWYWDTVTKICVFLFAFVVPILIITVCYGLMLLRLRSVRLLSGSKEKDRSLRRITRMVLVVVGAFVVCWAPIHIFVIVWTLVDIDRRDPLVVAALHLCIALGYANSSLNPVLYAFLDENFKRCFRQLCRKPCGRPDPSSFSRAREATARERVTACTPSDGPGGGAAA

[16] = target: T5, Kappa-type opioid receptor; test: SAR analysis of small molecule antagonists of the kappa opioid receptor via a luminescent beta-arrestin assay - Set 4. [Related pubchem assays (depositor defined):AID1777, AID1778, AID1785, AID1786, AID1966, AID2133, AID2136, AID2285]; assay type: functional
[17] = target: Melanin-concentrating hormone receptor 1 (Homo sapiens, UniProt Q99705); test: Late-stage fluorescence-based counterscreen for antagonists of the G-protein coupled receptor 7 (GPR7): cell-based dose response assay to identify antagonists of the melanin-concentrating hormone receptor 1 (MCHR1). [Related pubchem assays (depositor defined):AID1861, AID1880, AID1952, AID2148, AID2251, AID2257, AID485339]; assay type: functional;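 further: stimulated with 30 nM MCH peptide agonist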
Melanin-concentrating hormone receptor 1, sequence (Q99705 whole entry): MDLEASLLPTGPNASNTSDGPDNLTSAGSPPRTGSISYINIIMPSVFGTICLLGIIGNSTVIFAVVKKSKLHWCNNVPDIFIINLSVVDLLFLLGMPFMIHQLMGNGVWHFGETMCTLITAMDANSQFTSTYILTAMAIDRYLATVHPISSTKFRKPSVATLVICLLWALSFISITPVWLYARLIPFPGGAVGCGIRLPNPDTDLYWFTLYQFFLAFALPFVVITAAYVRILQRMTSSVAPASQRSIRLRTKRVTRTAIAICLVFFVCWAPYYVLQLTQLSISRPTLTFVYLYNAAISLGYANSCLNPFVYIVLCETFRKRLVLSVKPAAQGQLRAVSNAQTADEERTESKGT

[18] = target: T7, Beta-galactosidase (Escherichia coli, UniProt Q8VNN2); assay type: functional
T7 sequence (Q8VNN2 whole entry): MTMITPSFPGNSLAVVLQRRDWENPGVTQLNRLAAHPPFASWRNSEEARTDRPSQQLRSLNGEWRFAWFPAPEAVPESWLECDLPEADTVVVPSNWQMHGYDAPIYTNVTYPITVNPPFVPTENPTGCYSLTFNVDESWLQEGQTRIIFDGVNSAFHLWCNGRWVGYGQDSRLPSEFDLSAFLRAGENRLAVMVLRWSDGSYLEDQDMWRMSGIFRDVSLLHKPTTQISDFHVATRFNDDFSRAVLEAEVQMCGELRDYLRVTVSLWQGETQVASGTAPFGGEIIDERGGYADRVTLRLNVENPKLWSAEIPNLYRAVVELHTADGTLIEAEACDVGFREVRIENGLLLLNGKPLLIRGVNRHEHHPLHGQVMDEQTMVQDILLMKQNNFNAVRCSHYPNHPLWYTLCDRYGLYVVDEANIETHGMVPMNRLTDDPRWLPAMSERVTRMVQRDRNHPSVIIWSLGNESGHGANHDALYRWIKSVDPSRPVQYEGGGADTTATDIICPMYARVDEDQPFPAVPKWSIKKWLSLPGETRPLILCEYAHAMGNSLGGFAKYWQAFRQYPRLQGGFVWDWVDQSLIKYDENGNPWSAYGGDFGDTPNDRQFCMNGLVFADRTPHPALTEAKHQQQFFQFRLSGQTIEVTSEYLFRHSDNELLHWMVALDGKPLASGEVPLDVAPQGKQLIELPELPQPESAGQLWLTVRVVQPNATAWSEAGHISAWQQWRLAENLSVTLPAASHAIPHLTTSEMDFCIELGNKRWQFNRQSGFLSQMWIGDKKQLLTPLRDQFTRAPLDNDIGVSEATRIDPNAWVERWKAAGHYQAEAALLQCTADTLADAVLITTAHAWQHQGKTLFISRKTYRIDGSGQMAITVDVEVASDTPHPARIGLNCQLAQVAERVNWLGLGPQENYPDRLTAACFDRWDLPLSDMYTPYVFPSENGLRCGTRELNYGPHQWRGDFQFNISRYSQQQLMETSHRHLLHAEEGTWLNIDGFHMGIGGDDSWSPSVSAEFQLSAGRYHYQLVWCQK

[19] = target: T5, Kappa-type opioid receptor; assay type: functional
[20] = Luminescence Cell-Based Dose Response HTS to Identify Inhibitors of 5'UTR Stem-Loop Driven Prion Protein mRNA Translation in H4 Neuroglioblastoma Cells. [Related pubchem assays: 1827 (Project Summary), 1813 (Primary HTS)]; assay type: functional
[21] = target: T4, Mu-type opioid receptor; test: HTS Image-Based Screen for Agonists of the MOR Receptor. [Related pubchem assays (depositor defined):AID1777, AID1785, AID1786, AID2133]; assay type: functional
[22] = target: T6, Delta-type opioid receptor; test: HTS Image-Based Screen for Agonists of the DOR Receptor. [Related pubchem assays (depositor defined):AID1777, AID1786, AID2133]; assay type: functional
[23] = alpha-synuclein stem-loop luciferase translation blockers – H4 neuroglioma cells, luminescence, confirmation (AID 1988); assay type: functional, cell-based
[24] = luciferase reporter signal suppression in cells – H4 neuroglioma cells, luminescence, dose response (AID 1990); assay type: functional, cell-based
[25] = system: Vero; test: mammalian cell viability reduction – secondary assay, cytotoxicity control for West Nile virus antiviral project, dose response (AID 1650); assay type: functional; conditions: Chlorocebus sabaeus
[26] = target: E3 ubiquitin-protein ligase Mdm2/Protein Mdm4 (Homo sapiens, UniProt O15151+Q00987); test: disruption of Mdm2/MdmX protein binding – luminescence detection, dose response (AID 504593); assay type: functional
[27] = target: T6, Delta-type opioid receptor; test: HTS Image-Based Screen for Antagonists of the DOR Receptor. [Related pubchem assays (depositor defined):AID1777, AID1785, AID1786, AID2133]; assay type: functional
[28] = target: T5, Kappa-type opioid receptor; assay type: functional; remark: listed apart in the source
[29] = cells; assay type: functional, cell-based
[30] = target: C-C chemokine receptor type 6 (Homo sapiens, UniProt P51684); test: antagonism of CCR6 beta-arrestin recruitment – cell-based, luminescent beta-arrestin readout, dose response (AID 504728); assay type: functional
C-C chemokine receptor type 6, sequence (P51684 whole entry): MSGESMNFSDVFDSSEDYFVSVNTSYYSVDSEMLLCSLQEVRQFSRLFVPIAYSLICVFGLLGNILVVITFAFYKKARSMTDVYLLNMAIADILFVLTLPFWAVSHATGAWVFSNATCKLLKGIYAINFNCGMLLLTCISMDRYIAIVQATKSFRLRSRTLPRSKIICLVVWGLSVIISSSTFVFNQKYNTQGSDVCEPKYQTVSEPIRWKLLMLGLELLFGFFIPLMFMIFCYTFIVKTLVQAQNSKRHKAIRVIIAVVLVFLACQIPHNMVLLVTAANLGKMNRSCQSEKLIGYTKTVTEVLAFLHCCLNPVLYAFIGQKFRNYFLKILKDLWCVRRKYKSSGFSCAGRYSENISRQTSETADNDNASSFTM

[31] = target: T7, Beta-galactosidase; test: detection-enzyme interference by beta-gal modulators – biochemical, E. coli enzyme, set 3, artefact control for CCR6 antagonist project, dose response (AID 504712); assay type: functional
[32] = system: Vero; test: cells; assay type: functional; conditions: Chlorocebus sabaeus
[33] = cells; assay type: functional, cell-based; remark: listed apart in the source

T1 sequence (P21554 whole entry): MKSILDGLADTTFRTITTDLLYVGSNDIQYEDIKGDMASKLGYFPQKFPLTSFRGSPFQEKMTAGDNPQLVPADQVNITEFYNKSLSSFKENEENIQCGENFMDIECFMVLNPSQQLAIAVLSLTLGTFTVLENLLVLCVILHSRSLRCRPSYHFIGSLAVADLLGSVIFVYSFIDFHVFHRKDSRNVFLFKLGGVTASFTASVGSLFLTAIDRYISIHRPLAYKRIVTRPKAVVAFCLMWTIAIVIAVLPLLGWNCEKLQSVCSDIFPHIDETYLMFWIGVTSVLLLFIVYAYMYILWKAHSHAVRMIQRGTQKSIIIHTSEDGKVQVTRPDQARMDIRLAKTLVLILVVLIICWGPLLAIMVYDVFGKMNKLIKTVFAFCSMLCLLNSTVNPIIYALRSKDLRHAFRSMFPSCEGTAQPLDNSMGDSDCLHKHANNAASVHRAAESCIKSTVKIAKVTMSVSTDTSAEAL

For `COc1ccc(S(=O)(=O)N2CCOCC2)cc1NC(=O)c1ccc(Cl)cc1`, the EC50 [1] was 5.08 µM (active), the EC50 [2] was > 32 µM (inactive) and the IC50 [3] was > 32 µM (inactive). The IC50 [4] was 12.3 µM (inactive), the EC50 [5] was 0.138 µM (active) and the IC50 [6] was > 32 µM (inactive). The EC50 [7] was > 32 µM (inactive).
For `Cc1ccc(O)c(CCc2ccccc2)n1`, the EC50 [8] was 9.49 µM (active).
With `Cc1ccc(OCCOc2cccc(Br)c2)c([N+](=O)[O-])n1` the EC50 [9] was 27.6 µM (active), the EC50 [10] was 5.57 µM (active) and the EC50 [11] was > 50 µM (inactive).
In the case of `CC(C)N(CCNC(=O)c1ccc(CNS(=O)(=O)c2ccc3ccccc3c2)cc1)Cc1ccccc1`, the IC50 [12] is reported as > 32 µM (inactive), the IC50 [13] is reported as 0.16 µM (active) and the IC50 [14] is reported as 5.52 µM (active). For the same molecule, the IC50 [15] was 31.3 µM (inactive) and the IC50 [16] was 2.33 µM (active).
In the case of `O=C(C1CCCCN1Cc1ccccc1)N1CCN(c2ccc([N+](=O)[O-])cc2)CC1` (stereo not drawn), the IC50 [17] is reported as 11.3 µM (inactive).
For `O=[N+]([O-])c1ccccc1S(=O)(=O)Nc1cccc2cccnc12`, the EC50 [18] was > 31.5 µM (inactive), the IC50 [19] was over 32 µM and the EC50 [20] was 11.6 µM (active). The EC50 [21] was > 32 µM (inactive), the EC50 [22] was > 32 µM (inactive) and the EC50 [23] was > 120 µM (not active). For the same molecule, the EC50 [24] was 14.1 µM (active), the CC50 [25] was 8.6 µM (active) and the IC50 [26] was 3.73 µM (active). For the same molecule, the IC50 [27] was > 32 µM (inactive) and the IC50 [28] was 7.84 µM (active).
With `Cc1cc(C)nc(N/N=C/C2=C(O)CC(c3ccc(F)cc3)CC2=O)n1` (stereo not drawn) the EC50 [29] was 15.9 µM (active), the IC50 [30] was > 66.6 µM (inactive) and the IC50 [31] was > 66.6 µM (inactive). The CC50 [32] was > 25 µM (active) and the EC50 [33] was > 350 µM (not active).
